Data as given in patent US20190320654A1, “VOLATILE ORGANIC COMPOUNDS FOR INHIBITING FUNGAL GROWTH” (Georgia State University Research Foundation, Inc., priority 2014, published 2019).

Columns and labels:
P. destructans conidia = assay: VOC exposure assay with P. destructans conidia in a contained airspace; on anti-P. destructans activity, growth from conidia: key: +: growth from spores; −: no visible growth; format: cell-based, Pseudogymnoascus destructans; settings: for inhibitory activity on conidia: 11 days of exposure; for anti-P. destructans activity against conidia / inhibition of conidia with activated carbon: 30 μl; for anti-P. destructans activity against conidia: closed system; for inhibition of conidia with activated carbon: control plates containing 1 g activated carbon
Source text: (§1) Volatile organic compounds previously shown to be produced by bacteria [Chuankun X, et al. Soil Biol Biochem. 2004 36:1997-2004; Fernando W G D, et al. Soil Biol Biochem. 2005 37:955-64] were screened for anti-P. destructans activity via VOC exposure to spores and mycelial plugs. The VOCs included: decanal; 2-ethyl-1-hexanol; nonanal; benzothiazole; benzaldehyde; and N,N-dimethyloctylamine (Sigma-Aldrich, Missouri). All VOCs were chosen based on their identification in fungistatic soils and their observed production in bacteria [Chuankun X, et al. Soil Biol Biochem. 2004 36:1997-2004; Fernando W G D, et al. Soil Biol Biochem. 2005 37:955-64]. All VOCs purchased as pure, liquid, research grade reagents and used directly, without modification, in all subsequent assays. A single-compartment Petri plate (150 mm×15 mm) was used for a contained airspace to assess P. destructans growth characteristics in the presence of fungistatic VOCs. Ten microliters of P. destructans conidia suspension (10^6 conidia ml^−1 in PBS) was spread onto SDA plates (35 mm×10 mm). Aliquots of 30, 3.0, or 0.3 μl of each VOC corresponding to maximum possible relative concentrations ranging from 113 ppm (v/v) to 1.13 ppm (v/v) were pipetted onto a sterile filter paper disk (12.7 mm) on a watch glass (75 mm). Each VOC containing disk and watch glass was placed inside a large Petri plate (150 mm 9 15 mm) along with a P. destructans-inoculated SDA plate (35 mm×10 mm) (FIG. 6). P. destructans mycelial plugs cut from the leading edge of actively growing colonies were inserted into fresh SDA plates (35 mm×10 mm) and placed in large Petri plates (150 mm×15 mm) with each formulation or pure VOC containing paper disk and sealed with parafilm M (Sigma-Aldrich, Missouri). […] Unexposed cultures and the addition of activated carbon to exposure assays served as negative controls for each trial. Anti-P. destructans activity was scored on a plus/minus scale for conidia-inoculated plates, and the radial growth from mycelial plugs was used to determine percent inhibition by comparing growth area of VOC exposed plugs to unexposed controls. All assays were performed in triplicate and averaged.

[1] = test system: P. destructans mycelial plugs; assay: VOC exposure assay with P. destructans mycelial plugs, radial growth area; format: cell-based, Pseudogymnoascus destructans; settings: for inhibition of radial mycelial growth: 3 μl, up to 14 days
Source text: as §1
Filamentous fungi grow by hyphae elongation and not by distinct cellular division. Accordingly, measuring the difference between the area growth of control agent-exposed mycelial plugs and control plugs has been a vetted method for assessing antimicrobial susceptibility [Fernando W G D, et al. Soil Biol Biochem. 2005 37:955-64; Liu W, et al. Curr Res Bacteriol. 2008 1:128-34; Strobel G A, et al. Microbiology. 2007 153:2613-20]. The use of a ruler to measure the area of mycelial growth of filamentous fungi has its own challenges. Mycelial plugs will often grow asymmetrically, either naturally or because of exposure to the compound being tested. To provide more accurate measurement of mycelial growth, a digital photography and analysis technique was developed.
The GIMP (GNU Image Manipulation Program) is open-source, freely distributed software for image editing and authoring, compatible with GNU/Linux, Microsoft Windows, Mac OS X, Sun OpenSolaris, and FreeBSD operating systems. This software allows for the direct measurement of the number of pixels in a given selected area of a photograph. GIMP version 2.8.2 for Microsoft Windows was used at the time of this writing. A Nikon D3100 digital single lens reflex camera with an 18-55 mm lens was used to capture images. A standard three-leg tripod was used for support during capture.
The camera was attached to the tripod and aimed down to a surface to provide a consistent distance from the lens to the mycelial surface being photographed; ensuring the same pixel to millimeter ratio was retained for all acquired images. Images of mycelial plugs had their corresponding image numbers catalogued for later identification. […]

[2] = 3 μl VOC, 7 day exposure, incubated with activated carbon
[3] = 3 μl VOC, 10 day exposure, incubated with activated carbon
[4] = 30 μl VOC, incubated with activated carbon, 15° C.

Row | SMILES | anti-P. destructans activity, growth from conidia (P. destructans conidia; 3 μl VOC, 7 day exposure) | anti-P. destructans activity, growth from conidia (P. destructans conidia; [2]) | anti-P. destructans activity, growth from conidia (P. destructans conidia; 3 μl VOC, 10 day exposure) | anti-P. destructans activity, growth from conidia (P. destructans conidia; [3]) | inhibitory activity on conidia (P. destructans conidia; 3 μl) | anti-P. destructans activity, growth from conidia (P. destructans conidia; 30 μl VOC, 15° C.) | anti-P. destructans activity, growth from conidia (P. destructans conidia; [4]) | anti-P. destructans activity against conidia (P. destructans conidia; 15° C.) | inhibition of conidia with activated carbon (P. destructans conidia) | colony morphology of cultures from conidia (P. destructans conidia; 3 μl, without activated carbon) | reduction in radial growth ([1]; 0.3 μl, 15° C., 14 days of exposure) [%] | reduction in growth area ([1]; 0.3 μl, 4° C., 35 days post-inoculation) | inhibition of radial mycelial growth ([1]; 15° C.) | reduction in growth as compared to unexposed controls ([1]; 30 μl, 15° C., 14 days of exposure) [%] | inhibition of growth from conidia (P. destructans conidia; 3 μl, 7 days) | effect on radial growth as compared to unexposed controls ([1]; 0.3 μl, 15° C.)
1 | CCCCC(CC)CO (stereo not drawn) [2-ethyl-1-hexanol] | − | + | − | + | demonstrated inhibitory activity | − | + | demonstrated anti-P. destructans activity | no inhibition |  |  |  |  |  |  | 
2 | O=Cc1ccccc1 [Benzaldehyde, benzaldehyde] | − | + | + | + |  | − | + | demonstrated anti-P. destructans activity | no inhibition |  |  |  |  |  |  | 
3 | c1ccc2scnc2c1 [Benzothiazole, benzothiazole] | − | + | + | + |  | − | − | demonstrated anti-P. destructans activity |  | unique colony morphology characterized by increased pigmentation of the underside of the culture and diffusion of pigment into the growth media | 60 |  |  |  |  | 
4 | CCCCCCCCCC=O [Decanal, decanal] | − | + | − | + | demonstrated inhibitory activity | − | + | demonstrated anti-P. destructans activity | no inhibition |  |  | greater than 99% | only minor reductions in radial growth | 83 |  | 
5 | CCCCCCCCN(C)C [N,N-dimethyloctylamine] | + | + | + | + |  | − | − | demonstrated anti-P. destructans activity |  |  |  |  | only minor reductions in radial growth |  | unable to completely inhibit | induced growth
6 | CCCCCCCCC=O [Nonanal, nonanal] | − | + | − | + | demonstrated inhibitory activity | − | − | demonstrated anti-P. destructans activity |  |  |  |  |  |  |  | 
7 | CSSSC [dimethyltrisulfide] |  |  |  |  |  |  |  | demonstrated anti-P. destructans activity |  |  |  |  |  |  |  | 
